Assay results as given in patent US20180085340A1, “METHOD FOR TREATING MELANOMA” (TCI CO., LTD, priority 2016, published 2018).

Test system: Homo sapiens skin malignant melanoma cells (A375.S2 cell line)
Experiment: MTT assay of survival of malignant melanoma cells
Format: cell-based
Settings: for Relative survival rate (%) / Average of absorbance values (n = 4): 48 hours; for Relative survival rate (%): relative to control group, n = 4; for Average of absorbance values (n = 4): OD at 570 nm, MTT
Procedure: Homo sapiens skin malignant melanoma cells (A375.S2 cell line) were cultivated for 24 hours, and then divided into four groups (5×10^3 cells for each group). The four groups were respectively cultivated in the following medium for 48 hours: • 1. Control group: a MEM-NEAA medium contains 1 mmol of sodium pyruvate and 10% of FBS. • 2. High-dose group: a MEM-NEAA medium contains 1 mmol of sodium pyruvate, 10% of FBS and 1 mg/ml of the compound of formula (I) obtained from Example 1. • 3. Middle-dose group: a MEM-NEAA medium contains 1 mmol of sodium pyruvate, 10% of FBS and 0.5 mg/ml of the compound of formula (I) obtained from Example 1. • 4. Low-dose group: a MEM-NEAA medium contains 1 mmol of sodium pyruvate, 10% of FBS and 0.25 mg/ml of the compound of formula (I) obtained from Example 1.
Thereafter, the absorbance value (optical density, OD) at 570 nm of each group was determined by the MTT assay.
Steps of the above cultivation and MTT assay were repeated four times. The absorbance values were averaged in each group, and the result of the control group was served as a basis for calculating the relative survival rate of other groups.

SMILES: COc1cc([C@@H]2Oc3c(OC)cc(/C=C/C(=O)NCCc4ccc(O)cc4)cc3[C@@H]2C(=O)NCCc2ccc(O)cc2)ccc1O [compound of formula (I), N-trans-grossaminde]
- Relative survival rate (%) (0.25 mg/ml compound in medium): 93.67%
- Relative survival rate (%) (0.5 mg/ml compound in medium): 22.14%
- Relative survival rate (%) (1 mg/ml compound in medium): 12.24%
- Average of absorbance values (n = 4) (0.25 mg/ml compound): 0.733
- Average of absorbance values (n = 4) (0.5 mg/ml compound): 0.1732
- Average of absorbance values (n = 4) (1 mg/ml compound): 0.09575
- induction of apoptosis of malignant melanoma cells (conclusion drawn from MTT survival rates): effectively induce apoptosis
